Reference: publication PMC4522657, “Identification of a DYRK1A Inhibitor that Induces Degradation of the Target Kinase using Co-chaperone CDC37 fused with Luciferase nanoKAZ” (Scientific Reports, 2015)

Tests used:
Test in all cases: Kinase panel, CaNDY 1 µM
Type in all cases: biochemical
Conditions in all cases: CaNDY 1 µM relative to DMSO
[1] = molecular target: T1, ABL(E255K) (Homo sapiens, UniProt P00519, E255K)
T1 construct: purchased Carna Biosciences
Summary of the method: (§1)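 GST-tagged (N-term) full-length human kinases, baculovirus-expressed; 1% DMSO final; 1 h, RT; mobility shift; % inhibition vs no-inhibitor control from P/(P+S).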

[2] = molecular target: T2, ABL(T315I) (Homo sapiens, UniProt P00519, T315I)
T2 construct: purchased Carna Biosciences
Summary of the method: as §1

[3] = molecular target: T3, AKT3 (Homo sapiens, UniProt Q9Y243)
T3 construct: purchased Carna Biosciences
Summary of the method: as §1

[4] = molecular target: T4, AurA/TPX2 (Homo sapiens, UniProt O14965)
T4 construct: purchased Carna Biosciences
Summary of the method: as §1

[5] = molecular target: T5, BRK (Homo sapiens, UniProt Q13882)
T5 construct: purchased Carna Biosciences
Summary of the method: as §1

[6] = molecular target: T6, CDC2/CycB1 (Homo sapiens, UniProt P06493)
T6 construct: purchased Carna Biosciences
Summary of the method: as §1

[7] = molecular target: T7, CK1γ1 (Homo sapiens, UniProt Q9HCP0)
T7 construct: purchased Carna Biosciences
Summary of the method: as §1

[8] = molecular target: T8, CK1γ3 (Homo sapiens, UniProt Q9Y6M4)
T8 construct: purchased Carna Biosciences
Summary of the method: as §1

[9] = molecular target: T9, DYRK3 (Homo sapiens, UniProt O43781)
T9 construct: purchased Carna Biosciences
Summary of the method: as §1

[10] = molecular target: T10, EPHA5 (Homo sapiens, UniProt P54756)
T10 construct: purchased Carna Biosciences
Summary of the method: as §1

[11] = molecular target: T11, EPHA6 (Homo sapiens, UniProt Q9UF33)
T11 construct: purchased Carna Biosciences
Summary of the method: as §1

[12] = molecular target: T12, FAK (Homo sapiens, UniProt Q05397)
T12 construct: purchased Carna Biosciences
Summary of the method: as §1

[13] = molecular target: T13, FGFR3(K650M) (Homo sapiens, UniProt P22607, K650M)
T13 construct: purchased Carna Biosciences
Summary of the method: as §1

[14] = molecular target: T14, FLT4 (Homo sapiens, UniProt P35916)
T14 construct: purchased Carna Biosciences
Summary of the method: as §1

[15] = molecular target: T15, GSK3β (Homo sapiens, UniProt P49841)
T15 construct: purchased Carna Biosciences
Summary of the method: as §1

[16] = molecular target: T16, IKKα (Homo sapiens, UniProt O15111)
T16 construct: purchased Carna Biosciences
Summary of the method: as §1

[17] = molecular target: T17, LCK (Homo sapiens, UniProt P06239)
T17 construct: purchased Carna Biosciences
Summary of the method: as §1

[18] = molecular target: T18, MAP2K4_Cascade (Homo sapiens, UniProt P45985)
T18 construct: purchased Carna Biosciences
Summary of the method: as §1

[19] = molecular target: T19, MAP4K2 (Homo sapiens, UniProt Q12851)
T19 construct: purchased Carna Biosciences
Summary of the method: as §1

[20] = molecular target: T20, MOS_Cascade (Homo sapiens, UniProt P00540)
T20 construct: purchased Carna Biosciences
Summary of the method: as §1

[21] = molecular target: T21, PAK2 (Homo sapiens, UniProt Q13177)
T21 construct: purchased Carna Biosciences
Summary of the method: as §1

[22] = molecular target: T22, PAK3 (Homo sapiens, UniProt O75914)
T22 construct: purchased Carna Biosciences
Summary of the method: as §1

[23] = molecular target: T23, PAK4 (Homo sapiens, UniProt O96013)
T23 construct: purchased Carna Biosciences
Summary of the method: as §1

[24] = molecular target: T24, PASK (Homo sapiens, UniProt Q96RG2)
T24 construct: purchased Carna Biosciences
Summary of the method: as §1

[25] = molecular target: T25, PDK1 (Homo sapiens, UniProt O15530)
T25 construct: purchased Carna Biosciences
Summary of the method: as §1

[26] = molecular target: T26, PKACβ (Homo sapiens, UniProt P22694)
T26 construct: purchased Carna Biosciences
Summary of the method: as §1

[27] = molecular target: T27, PKCι (Homo sapiens, UniProt P41743)
T27 construct: purchased Carna Biosciences
Summary of the method: as §1

[28] = molecular target: T28, PKD2 (Homo sapiens, UniProt Q9BZL6)
T28 construct: purchased Carna Biosciences
Summary of the method: as §1

[29] = molecular target: T29, QIK (Homo sapiens, UniProt Q9H0K1)
T29 construct: purchased Carna Biosciences
Summary of the method: as §1

[30] = molecular target: T30, SGK2 (Homo sapiens, UniProt Q9HBY8)
T30 construct: purchased Carna Biosciences
Summary of the method: as §1

[31] = molecular target: T31, SLK (Homo sapiens, UniProt Q9H2G2)
T31 construct: purchased Carna Biosciences
Summary of the method: as §1

[32] = molecular target: T32, SPHK2 (Homo sapiens, UniProt Q9NRA0)
T32 construct: purchased Carna Biosciences
Summary of the method: as §1

[33] = molecular target: T33, SRPK1 (Homo sapiens, UniProt Q96SB4)
T33 construct: purchased Carna Biosciences
Summary of the method: as §1

[34] = molecular target: T34, TSSK1 (Homo sapiens, UniProt Q9BXA7)
T34 construct: purchased Carna Biosciences
Summary of the method: as §1

[35] = molecular target: T35, TXK (Homo sapiens, UniProt P42681)
T35 construct: purchased Carna Biosciences
Summary of the method: as §1

[36] = molecular target: T36, p70S6Kβ (Homo sapiens, UniProt Q9UBS0)
T36 construct: purchased Carna Biosciences
Summary of the method: as §1

T22 sequence (O75914 whole entry): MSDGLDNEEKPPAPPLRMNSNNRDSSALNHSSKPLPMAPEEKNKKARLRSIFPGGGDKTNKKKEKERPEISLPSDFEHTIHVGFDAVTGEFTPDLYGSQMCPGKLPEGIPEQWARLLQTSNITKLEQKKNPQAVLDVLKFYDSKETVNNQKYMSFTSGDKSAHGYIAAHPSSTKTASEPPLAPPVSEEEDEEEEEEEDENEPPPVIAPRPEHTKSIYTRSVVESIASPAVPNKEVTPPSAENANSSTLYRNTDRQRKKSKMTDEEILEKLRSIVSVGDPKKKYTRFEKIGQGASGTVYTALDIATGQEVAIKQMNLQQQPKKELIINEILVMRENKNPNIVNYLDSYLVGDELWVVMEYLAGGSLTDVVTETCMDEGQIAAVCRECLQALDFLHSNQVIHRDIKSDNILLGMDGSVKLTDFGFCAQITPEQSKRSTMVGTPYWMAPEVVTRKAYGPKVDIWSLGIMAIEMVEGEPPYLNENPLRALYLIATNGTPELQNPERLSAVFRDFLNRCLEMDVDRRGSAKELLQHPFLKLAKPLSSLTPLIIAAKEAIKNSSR
T34 sequence (Q9BXA7 whole entry): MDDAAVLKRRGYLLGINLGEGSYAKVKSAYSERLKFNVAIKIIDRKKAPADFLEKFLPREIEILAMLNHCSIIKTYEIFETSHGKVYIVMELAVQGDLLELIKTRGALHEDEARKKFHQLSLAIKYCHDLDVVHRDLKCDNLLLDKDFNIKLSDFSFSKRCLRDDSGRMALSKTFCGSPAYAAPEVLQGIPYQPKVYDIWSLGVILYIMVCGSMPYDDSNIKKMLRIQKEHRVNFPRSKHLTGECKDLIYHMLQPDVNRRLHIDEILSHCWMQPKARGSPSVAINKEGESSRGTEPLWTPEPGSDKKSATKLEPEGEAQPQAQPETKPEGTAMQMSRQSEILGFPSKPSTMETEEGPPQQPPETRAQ
T25 sequence (O15530 whole entry): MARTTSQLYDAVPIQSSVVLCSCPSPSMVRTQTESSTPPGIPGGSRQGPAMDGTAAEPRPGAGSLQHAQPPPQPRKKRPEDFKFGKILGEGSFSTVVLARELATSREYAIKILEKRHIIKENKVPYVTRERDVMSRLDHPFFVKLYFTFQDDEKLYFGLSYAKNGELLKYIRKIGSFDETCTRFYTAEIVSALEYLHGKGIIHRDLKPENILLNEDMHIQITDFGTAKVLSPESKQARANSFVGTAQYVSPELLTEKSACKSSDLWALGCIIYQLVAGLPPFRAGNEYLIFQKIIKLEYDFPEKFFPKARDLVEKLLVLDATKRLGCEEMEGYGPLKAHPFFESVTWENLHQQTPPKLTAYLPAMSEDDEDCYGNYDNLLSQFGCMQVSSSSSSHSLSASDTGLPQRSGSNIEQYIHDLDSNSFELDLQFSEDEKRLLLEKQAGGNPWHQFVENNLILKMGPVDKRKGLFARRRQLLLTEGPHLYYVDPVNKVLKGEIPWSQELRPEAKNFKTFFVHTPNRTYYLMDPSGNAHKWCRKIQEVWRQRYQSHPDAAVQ
T14 sequence (P35916 25-1363): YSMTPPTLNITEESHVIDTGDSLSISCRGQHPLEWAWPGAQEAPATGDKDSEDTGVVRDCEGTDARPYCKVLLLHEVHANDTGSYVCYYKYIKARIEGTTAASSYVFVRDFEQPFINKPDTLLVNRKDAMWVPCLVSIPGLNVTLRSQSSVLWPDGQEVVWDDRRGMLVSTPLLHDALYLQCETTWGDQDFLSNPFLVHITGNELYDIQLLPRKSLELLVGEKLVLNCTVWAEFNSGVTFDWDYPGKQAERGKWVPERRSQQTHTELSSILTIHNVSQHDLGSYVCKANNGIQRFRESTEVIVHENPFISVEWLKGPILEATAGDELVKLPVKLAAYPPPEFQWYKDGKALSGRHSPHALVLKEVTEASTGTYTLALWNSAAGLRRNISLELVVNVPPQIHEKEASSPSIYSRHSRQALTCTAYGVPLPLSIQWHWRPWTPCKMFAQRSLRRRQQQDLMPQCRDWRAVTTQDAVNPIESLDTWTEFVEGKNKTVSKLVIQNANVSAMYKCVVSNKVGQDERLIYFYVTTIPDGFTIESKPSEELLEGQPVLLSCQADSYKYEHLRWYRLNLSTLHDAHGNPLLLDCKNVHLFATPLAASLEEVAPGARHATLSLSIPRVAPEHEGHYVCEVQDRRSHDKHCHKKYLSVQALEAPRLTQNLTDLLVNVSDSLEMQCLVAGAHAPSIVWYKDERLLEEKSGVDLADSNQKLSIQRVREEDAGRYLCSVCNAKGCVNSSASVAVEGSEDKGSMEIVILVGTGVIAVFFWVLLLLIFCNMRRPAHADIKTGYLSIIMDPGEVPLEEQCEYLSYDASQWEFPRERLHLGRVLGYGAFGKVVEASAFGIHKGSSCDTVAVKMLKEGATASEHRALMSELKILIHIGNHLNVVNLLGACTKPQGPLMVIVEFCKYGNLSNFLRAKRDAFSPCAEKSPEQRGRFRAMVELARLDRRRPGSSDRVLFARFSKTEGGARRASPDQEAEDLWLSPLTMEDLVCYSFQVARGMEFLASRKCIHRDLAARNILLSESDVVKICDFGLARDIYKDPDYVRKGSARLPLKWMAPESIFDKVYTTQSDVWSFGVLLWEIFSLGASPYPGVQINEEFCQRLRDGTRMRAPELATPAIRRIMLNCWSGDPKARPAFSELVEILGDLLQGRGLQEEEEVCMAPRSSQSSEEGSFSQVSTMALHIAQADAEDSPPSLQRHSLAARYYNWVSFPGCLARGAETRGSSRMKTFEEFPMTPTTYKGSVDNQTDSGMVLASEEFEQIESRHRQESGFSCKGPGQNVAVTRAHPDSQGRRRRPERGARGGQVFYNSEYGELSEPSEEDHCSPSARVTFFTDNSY
T11 sequence (Q9UF33 23-1036): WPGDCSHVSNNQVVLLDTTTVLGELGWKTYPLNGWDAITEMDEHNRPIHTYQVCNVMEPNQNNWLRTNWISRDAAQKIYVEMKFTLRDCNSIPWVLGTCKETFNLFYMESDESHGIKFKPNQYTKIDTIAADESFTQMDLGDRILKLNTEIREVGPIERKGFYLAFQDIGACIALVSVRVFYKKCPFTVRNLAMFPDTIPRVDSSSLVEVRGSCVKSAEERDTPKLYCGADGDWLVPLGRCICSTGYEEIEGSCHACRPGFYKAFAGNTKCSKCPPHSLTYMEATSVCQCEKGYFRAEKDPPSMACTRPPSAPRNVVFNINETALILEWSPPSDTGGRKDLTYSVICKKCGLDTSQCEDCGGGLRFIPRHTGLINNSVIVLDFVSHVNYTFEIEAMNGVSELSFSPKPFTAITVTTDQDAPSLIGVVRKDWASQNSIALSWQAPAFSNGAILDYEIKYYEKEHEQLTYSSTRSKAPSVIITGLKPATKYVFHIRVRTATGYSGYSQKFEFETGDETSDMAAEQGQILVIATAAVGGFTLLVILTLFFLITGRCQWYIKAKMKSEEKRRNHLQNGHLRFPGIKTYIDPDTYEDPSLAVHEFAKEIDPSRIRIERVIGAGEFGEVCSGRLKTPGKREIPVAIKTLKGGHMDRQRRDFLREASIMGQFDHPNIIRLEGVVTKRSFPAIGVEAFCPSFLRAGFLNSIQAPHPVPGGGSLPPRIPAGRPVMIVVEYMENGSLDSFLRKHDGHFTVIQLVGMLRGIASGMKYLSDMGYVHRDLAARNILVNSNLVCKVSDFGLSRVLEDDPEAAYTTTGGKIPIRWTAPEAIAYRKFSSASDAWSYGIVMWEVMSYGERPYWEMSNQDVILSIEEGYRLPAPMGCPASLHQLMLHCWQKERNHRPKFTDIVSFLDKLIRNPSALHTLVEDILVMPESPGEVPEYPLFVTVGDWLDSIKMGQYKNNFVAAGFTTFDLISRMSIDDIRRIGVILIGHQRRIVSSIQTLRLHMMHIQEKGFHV
T9 sequence (O43781 whole entry): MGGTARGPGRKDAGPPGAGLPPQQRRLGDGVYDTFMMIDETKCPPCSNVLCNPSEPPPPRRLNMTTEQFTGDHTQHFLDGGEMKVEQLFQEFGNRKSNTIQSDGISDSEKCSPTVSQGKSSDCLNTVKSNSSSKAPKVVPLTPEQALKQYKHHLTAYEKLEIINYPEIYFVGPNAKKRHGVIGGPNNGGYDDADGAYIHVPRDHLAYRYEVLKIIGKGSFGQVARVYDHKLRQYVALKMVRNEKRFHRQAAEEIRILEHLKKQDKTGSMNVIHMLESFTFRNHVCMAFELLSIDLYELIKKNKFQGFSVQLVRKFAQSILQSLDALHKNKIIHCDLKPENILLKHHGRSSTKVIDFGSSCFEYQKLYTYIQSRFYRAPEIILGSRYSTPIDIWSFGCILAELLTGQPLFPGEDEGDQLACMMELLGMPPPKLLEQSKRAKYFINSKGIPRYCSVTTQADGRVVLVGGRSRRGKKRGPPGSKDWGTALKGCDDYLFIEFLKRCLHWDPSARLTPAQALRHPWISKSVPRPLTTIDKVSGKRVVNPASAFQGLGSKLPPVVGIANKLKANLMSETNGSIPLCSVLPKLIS
T4 sequence (O14965 whole entry): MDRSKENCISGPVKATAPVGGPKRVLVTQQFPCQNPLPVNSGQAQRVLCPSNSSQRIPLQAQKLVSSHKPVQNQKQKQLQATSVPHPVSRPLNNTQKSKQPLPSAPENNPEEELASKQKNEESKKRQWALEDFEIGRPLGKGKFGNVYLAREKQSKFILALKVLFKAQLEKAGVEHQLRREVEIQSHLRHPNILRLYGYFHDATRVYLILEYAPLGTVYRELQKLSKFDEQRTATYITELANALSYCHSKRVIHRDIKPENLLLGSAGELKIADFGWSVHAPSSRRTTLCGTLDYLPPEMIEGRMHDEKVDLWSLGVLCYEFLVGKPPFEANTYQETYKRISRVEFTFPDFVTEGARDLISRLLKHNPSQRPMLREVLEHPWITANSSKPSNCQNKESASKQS
T4 sequence (Q9ULW0 1-43 partner limits assumed): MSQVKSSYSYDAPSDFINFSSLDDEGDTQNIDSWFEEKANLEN

## [H]/N=C1/NC(=O)C(=Cc2ccc3c(c2)CCO3)S1 [CaNDY, (Z)-5-[(2,3-dihydrobenzofuran-5-yl)methylene]-2-iminothiazolidin-4-one]
[1]
  remaining activity at 1 µM: 104%
[2]
  remaining activity at 1 µM: 97%
[3]
  remaining activity at 1 µM: 104%
[4]
  remaining activity at 1 µM: 98.8%
[5]
  remaining activity at 1 µM: 95.4%
[6]
  remaining activity at 1 µM: 65.7%
[7]
  %Activity: 83.4%
[8]
  %Activity: 79.0%
[9]
  remaining activity at 1 µM: 11%
[10]
  %Activity: 100.1%
[11]
  remaining activity at 1 µM: 96.8%
[12]
  remaining activity at 1 µM: 98.5%
[13]
  remaining activity at 1 µM: 101%
[14]
  remaining activity at 1 µM: 103%
[15]
  remaining activity at 1 µM: 74.1%
[16]
  remaining activity at 1 µM: 95.7%
[17]
  remaining activity at 1 µM: 99%
[18]
  remaining activity at 1 µM: 100%
[19]
  remaining activity at 1 µM: 76.7%
[20]
  remaining activity at 1 µM: 92.4%
[21]
  remaining activity at 1 µM: 101%
[22]
  remaining activity at 1 µM: 109%
[23]
  remaining activity at 1 µM: 95%
[24]
  remaining activity at 1 µM: 65.1%
[25]
  remaining activity at 1 µM: 107%
[26]
  remaining activity at 1 µM: 92.5%
[27]
  remaining activity at 1 µM: 101%
[28]
  remaining activity at 1 µM: 83.3%
[29]
  remaining activity at 1 µM: 99.5%
[30]
  remaining activity at 1 µM: 88.6%
[31]
  remaining activity at 1 µM: 96.9%
[32]
  remaining activity at 1 µM: 92.3%
[33]
  remaining activity at 1 µM: 101%
[34]
  remaining activity at 1 µM: 94.5%
[35]
  remaining activity at 1 µM: 96.8%
[36]
  remaining activity at 1 µM: 88.9%
